According to US5763245A, “Method of controlling insects” (priority 1996, dated 1998):

How the values were obtained:
boll weevil larvae [1] = assay: Boll weevil larvae bioassay (diet incorporation); format: in vivo; conditions: for lethal effects against boll weevil: incorporated at up to 200 &M in the standard diet
Procedure: Assays for activity against boll weevil larvae are carried out by incorporating the test sample into a agar liquid diet similar to that for southern corn rootworm [Marrone et al., 1985]. The test sample is substituted for the 20% water component. Neonate larvae are allowed to feed on the diet and mortality and growth stunting are evaluated.
Protein concentrations were determined spectrophotometrically with BCA protein reagent [Smith et al., 1985].

[2] = system: black cutworm (BCW) larvae; assay: B.t. / cholesterol oxidase synergy diet assay; format: in vivo, Agrotis ipsilon; conditions: each protein 15 ppm, alone or in tandem
H. zea neonate larvae = assay: B.t. / cholesterol oxidase synergy diet assay; format: in vivo, Helicoverpa zea; design: surv.: unit not given here; conditions: CO 15 ppm, alone or in tandem; for Mean Larval wgt / Stunting Observed: 7-day
Procedure: (§1) Feeding assays were conducted for 7-10 days.

[3] = system: fall armyworn (FAW) neonate larvae; assay: B.t. / cholesterol oxidase synergy diet assay; format: in vivo; conditions: 7-day; each protein 15 ppm, alone or in tandem
Procedure: as §1

[4] = system: black cutworm (BCW) neonate; assay: Detached leaf assay with transgenic corn; format: in vivo, Agrotis ipsilon; conditions: corn leaf tissue, 3d
Excerpt: A detached leaf assay was designed to evaluate biological activity of transgenic corn expressing either CryIA(b) alone or in combination with cholesterol oxidase (CO) against Agrotis ipsilon, black cutworm (BCW). In artificial diet assays, a synergistic response was observed when CO and CryIA(b) were combined.
Treatments included transgenic corn expressing either CryIA(b) alone or in combination with CO. Plant tissue from the F1 generation of two CO events crossed to a CryIA(b) event was used in this bioassay. The CO events included collosian and flushed. The CryIA(b) event was ezra. For each of the CO events by CryIA(b) cross, the CO isopopulations provide the tissue for each treatment.
CO expression was estimated to be 15 and 14 ppm for collosian and flushed, respectively. CryIA(b) expression was not quantitated. Historically, this event has reliably and consistently expressed the CryIA(b) protein at around 10 ppm.
Tissue was collected at the v6 stage from the youngest leaf of six plants for each treatment event combination. Four leaf samples (1.5×2.0 cm leaf pieces) were taken from each plant, where each piece was placed singly in a well of a 24-well microtiter plate. One neonate larva was added to each well and sealed with a mylar lidding. The assay was incubated for 3 days at 27° C. Larval weight (mg) and mortality was recorded. […] Although larval weight was less in the CryIA(b)+CO treatment for both events as compared to CryIA(b) alone (ca. 12%), the difference between the treatment means within an event was not significant.

[5] = system: Tobacco budworm (TBW) neonate larvae; assay: B.t. / cholesterol oxidase synergy diet assay; format: in vivo; conditions: 7-day; for surv.: n 96
Procedure: as §1

[6] = system: beet armyworm (BAW) neonate larvae; assay: B.t. / cholesterol oxidase synergy diet assay; format: in vivo; conditions: each protein 15 ppm, alone or in tandem; for Mean Larval wgt / Stunting Observed: 7-day
Procedure: as §1

[7] = system: boll weevil or lepidopteran larvae; assay: Feeding of diet incubated with enzyme and then boiled; format: in vivo; conditions: diet incubated one week with the enzyme, then boiled
Excerpt: While not being bound by this theory, it is believed that the 3-hydroxysteroid oxidase enzyme kills or stunts boll weevil larvae and stunts the growth of lepidopteran larvae by some action in the gut after ingestion.

tobacco budworm larvae = assay: Cottonseed diet (Pharmamedia flour) test with tobacco budworm; format: in vivo; conditions: 100 ppm in cottonseed diet (Pharmamedia flour)
Procedure: The Southern corn rootworm diet used in the assay described above was the control. Two treatment diets were made by mixing 30 g of one of two types of cottonseed flour into 170 mL of a 1.6% agar solution at 50% C, containing 0.13% propionic acid, 0.014% phosphoric acid, and 30 mg each of streptomycin sulfate and chlortetracycline. Before mixing, 10% KOH was used to adjust the pH to 6.2. One test diet utilized raw cottonseed flour (Sigma) as the nutrient source; the other utilized Pharmamedia™ (Traders Protein), a flour made up of cottonseed embryos. The diets were incubated in a water bath at 40% C. Dilutions of the Sigma Streptomyces 3-hydroxysteroid oxidase (cholesterol oxidase) were incorporated into the diets as described above. Boll weevil larvae were allowed to feed and mortality rates were determined after six days.
In addition, tobacco budworm larvae are 68% stunted when exposed to 3-hydroxysteroid oxidase (100 ppm) in cottonseed diet (made with Pharmamedia™ flour).

[8] = system: midguts of boll weevil larvae; assay: Midgut morphology of larvae feeding on enzyme diets; format: in vivo
Excerpt: The enzymatic action in the gut is believed to be oxidation of the 3-hydroxysteroid(s) of the cell membranes in the lining of the gut. The effects of ingested 3-hydroxysteroid oxidase on the midguts of boll weevil larvae have been studied. The midguts of boll weevil larvae (neonate and second instar at initiation of assay) feeding on diets containing sublethal doses of 3-hydroxysteroid oxidase were dissected out. Representative midguts were immediately placed in fixative and analyzed microscopically for morphological changes. […] There was a good correlation of the morphological changes with the observed mortality over the 3-hydroxysteroid oxidase concentration range in the diet. Parallel midguts were dissected and homogenized and found to contain active 3-hydroxysteroid oxidase in enzymatic assays.

boll weevil larvae [9] = assay: Homogenized cotton leaf tissue assay; format: in vivo; conditions: six days, initial 24
Procedure: In order to test 3-hydroxysteroid oxidase against boll weevil larvae in a host tissue diet environment, a study was conducted in which cotton leaf tissue was the only nutritional component of an agar-based diet. Two cotton leaves (each approx. 5 inches wide ) with stems were homogenized at 50% C into 170 mL of a 1.6% agar solution containing 0.13% propionic acid, 0.014% phosphoric acid, and 30 mg each of streptomycin sulfate and chlortetracycline. Before addition of the leaves, 10% KOH was used to adjust the pH of the agar solution to 6.2. The leaf "diet" was allowed to cool to 40% C. Dilutions of cholesterol oxidase and a water control were incorporated into the leaf "diet", poured into insect diet trays and allowed to cool. Boll weevil eggs were added to the diet wells. The assay was evaluated six days later. […] This illustrates that the enzyme is insecticidal in the presence of intact cotton tissue and cells.

[10] = CO 15 ppm, CryIA(c) 0.1 ppm, alone or in tandem
[11] = CryIA(c) 0.05 ppm, alone or with CO 15 ppm

Compound | lethal effects against boll weevil (boll weevil larvae [1]) | Obs. Mort. ([2]; 3rd instar 6 day) [%] | surv. ([2]; 3rd instar 6 day) | Mean Larval wgt ([2]; 3rd instar, 6-day assay) [mg] | Stunting Observed ([2]; 3rd instar, 6-day assay) [%] | Obs. Mort. ([2]; Neonate 6 day) [%] | surv. ([2]; Neonate 6 day) | Obs. Mort. ([2]; Neonate 7 day) [%] | surv. ([2]; Neonate 7 day) | Mean Larval wgt ([2]; Neonate, 7-day assay) [mg] | Stunting Observed ([2]; Neonate, 7-day assay) [%] | Mean Larval wgt (H. zea neonate larvae; CryIA(b) 10 ppm) [mg] | Stunting Observed (H. zea neonate larvae; CryIA(b) 10 ppm) [%] | Obs. Mort. (H. zea neonate larvae; 7 day, CryIA(b) 10 ppm) [%] | surv. (H. zea neonate larvae; 7 day, CryIA(b) 10 ppm) | Obs. Mort. (H. zea neonate larvae; 8 day, CryIA(b) 10 ppm) [%] | surv. (H. zea neonate larvae; 8 day, CryIA(b) 10 ppm) | Mean Larval wgt [3] [mg] | Obs. Mort. [3] [%] | Stunting Observed [3] [%] | other results
CC(C)CCC[C@@H](C)[C@H]1CC[C@H]2[C@@H]3CCC4=CC(=O)CC[C@]4(C)[C@H]3CC[C@]12C [cholestenone, reference compound] | Nor do cholestenone or hydrogen peroxide, the products of enzymatic action on cholesterol, exhibit any lethal effects |  |  |  |  |  |  |  |  |  |  |  |  |  |  |  |  |  |  |  | 
OO [hydrogen peroxide, reference compound] | Nor do cholestenone or hydrogen peroxide, the products of enzymatic action on cholesterol, exhibit any lethal effects |  |  |  |  |  |  |  |  |  |  |  |  |  |  |  |  |  |  |  | 
CryIA(b): Bacillus thuringiensis crystal protein, purified; in Table 24 expressed in transgenic corn event ezra |  | 0 | 32 | 216 | 15 | 0 | 91 | 2 | 76 | 13.64 | 7 | 0.96 | 97 | 4.3 | 90 | 10 | 69 | 0.25 ± 0.05 | 10 | 99 | surv. [3]: 80; Mean Larval Weight ([4]; event collosian x ezra): 1.11 mg; Mort. ([4]; event collosian x ezra): 7%; Mean Larval Weight ([4]; event flushed x ezra): 1.27 mg; Mort. ([4]; event flushed x ezra): 8%
CryIA(c): Bacillus thuringiensis crystal protein, purified |  |  |  |  |  |  |  |  |  |  |  |  |  |  |  |  |  |  |  |  | Obs. Mort. (H. zea neonate larvae; 7 day, CryIA(c) 15 ppm): 11%; surv. (H. zea neonate larvae; 7 day, CryIA(c) 15 ppm): 82; Obs. Mort. (H. zea neonate larvae; 10 day, CryIA(c) 15 ppm): 11%; surv. (H. zea neonate larvae; 10 day, CryIA(c) 15 ppm): 82; Obs. Mort. [5, 10]: 38%; surv. [5, 10]: 56; Obs. Mort. [5, 11]: 23%; surv. [5, 11]: 70; Mean Larval wgt [6]: 6.15 ± 0.90 mg; Stunting Observed [6]: 88%; Obs. Mort. ([6]; 7 day): 2%; surv. ([6]; 7 day): 94; Obs. Mort. ([6]; 8 day): 3%; surv. ([6]; 8 day): 70
catalase [reference compound] |  |  |  |  |  |  |  |  |  |  |  |  |  |  |  |  |  |  |  |  | effect of added catalase on lethal effects of 3-hydroxysteroid oxidase on boll weevil (boll weevil larvae [1]; catalase added to 3-hydroxysteroid oxidase in the bioassay): does not block the lethal effects
cholesterol oxidase |  | 0 | 32 | 197 | 22 | 2 | 81 | 1 | 61 | 9.93 | 32 | 24.95 | 27 | 0 | 95 | 1 | 87 | 42.97 ± 1.77 | 2 | 0 | Obs. Mort. (H. zea neonate larvae; 7 day, CryIA(c) 15 ppm): 0%; surv. (H. zea neonate larvae; 7 day, CryIA(c) 15 ppm): 96; Obs. Mort. (H. zea neonate larvae; 10 day, CryIA(c) 15 ppm): 0%; surv. (H. zea neonate larvae; 10 day, CryIA(c) 15 ppm): 96; lethal or stunting effects [7]: no lethal or stunting effects; Obs. Mort. [5, 10]: 1%; surv. [5, 10]: 90; surv. [3]: 90; Mean Larval wgt [6]: 27.51 ± 5.52 mg; Stunting Observed [6]: 47%; Obs. Mort. ([6]; 7 day): 1%; surv. ([6]; 7 day): 94; Obs. Mort. ([6]; 8 day): 3%; surv. ([6]; 8 day): 77; stunted (tobacco budworm larvae): 68%; midgut morphological changes ([8]; higher doses): complete lysis of the cells; midgut morphological changes ([8]; larvae ingesting low doses): Disruption of the epithelial cell layer; Bollweevils Survivors (boll weevil larvae [9]; 10 ppm in cotton leaf diet): 20; Bollweevils Survivors (boll weevil larvae [9]; 50 ppm in cotton leaf diet): 12; Bollweevils Survivors (boll weevil larvae [9]; 100 ppm in cotton leaf diet): 0
